Measured values: patent publication US9119855B2, “Compositions and methods for treatment of the side-effects associated with administration of cancer chemotherapeutic agents” (Asymmetric Therapeutics, LLC, priority 2008, dated 2015)
Entries after “also recorded” stand apart in the source; their conditions may differ. Like-named read-outs stand apart in the source and are kept apart here.

Tests used:
[1] = Van Acker et al.; cited from earlier work
[2] = Van Acker et al.; cited from earlier work; remark: listed apart in the source
[3] = test system: Caco-2 cells
Protocol: 5-FU was dissolved in water and added to media at 10 μM, the clinically-relevant dose. Media was changed every day with reapplication of 5-FU. After 72 hr, the cell viability was assessed and is expressed relative to a vehicle control (Caco-2, n=3).

[4] = test system: primary human epithelial cells of the gingiva (HEGP); test: Protection of primary gingival epithelial cells from 5-FU toxicity, 72 hours (FIG. 9); assay type: cell-based
Text: GI columnar cells rely for growth predominantly on de novo pyrimidine synthesis from nutrients in the GI contents. Squamous cells of the oropharynx rely for growth predominantly on salvage of cell constituents of the overlying cells closer to the tissue surface.

[5] = test system: primary human skin cells
Protocol: The concentration of 5-FU was also 0.01 mM in these trials. […] The relative viability of the cells was determined after 48 hours (FIG. 7) or 72 hours (FIG. 8).

[6] = acidic / low pH, orotate not charged (Robinson et al.); cited from earlier work
[7] = in vitro; assay type: cell-based; settings: human
Protocol: The efficacy of certain compounds as protective agents when co-administered with 5-FU was tested in cell culture. […] The relative viability of the cells was determined after 120 hours.

## Nc1nc(O)nc2nc(O)[nH]c12 [2,8-dihydroxy adenine]
[1]
  solubility: poorly soluble
[2]
  renal toxicity: can cause renal stones

## O=c1cc[nH]c(=O)[nH]1 [uracil]
[3]; further addition of uracil 1.25 and 2.5 mM, 10 μM 5-FU, data not shown
  effect on cytoprotection by adenine 2.5 mM in combination with orotate 2.5 mM: reversal of the cytoprotection
[4]; FIG. 9, 72 hours
  efficacy and toxicity to primary gingival cells (HGEP): effective and non-toxic
[4]; excess of uracil together with 5-FU 10 μM
  prevention of 5-FU toxicity: prevented 5-FU toxicity
[4]; further addition of uracil at 1.25 mM to adenine and orotate 2.5 mM each (Result Y)
  protection against 5-FU toxicity: significant protection
[4]; further addition of uracil at 2.5 mM to adenine and orotate 2.5 mM each (Result Z)
  protection against 5-FU toxicity: even more significant protection

## O=C(O)c1cc(=O)[nH]c(=O)[nH]1 [orotate]
[3]
  cytoprotection against 10 μM 5-FU toxicity: statistically insignificant cytoprotection
[3]; orotate 1.25 mM with adenine 0.0125 mM through 1.25 mM, 10 μM 5-FU (FIG. 5)
  effect of adding orotate on cytoprotection by adenine: did not initially attenuate 5-FU toxicity beyond the cytoprotection provided by adenine alone
[3]; still higher concentrations of orotate with adenine 2.5 mM (FIG. 6, Results 5, 6 vs 2)
  effect of adding orotate on cytoprotection by adenine: progressively greater abrogation of salvage
[5]
  impact on skin (squamous) cell response to 5-FU exposure: does not impact
[6]
  absorption into the systemic circulation: better absorbed; also recorded: absorbed at a higher rate

## Nc1ncnc2nc[nH]c12 [adenine]
[3]
  cytoprotection against 10 μM 5-FU toxicity: progressively greater cytoprotection
[3]; adenine alone, vs 10 μM 5-FU
  excess of protective nucleobase required for quantitative protection: ~100 ×

## O=c1[nH]cc(F)c(=O)[nH]1 [5-FU, 5-fluorouracil, reference compound]
[7]
  viability at 120 h, 0.01 mM: < 50%
